Data: publication PMC6891286, “Towards the Development of an In vivo Chemical Probe for Cyclin G Associated Kinase (GAK)” (Molecules, 2019)
Like-named read-outs stand apart in the source and are kept apart here.

Assays:
[1] = metabolite identification in mouse liver microsomes
Protocol: After centrifugation, the supernatant was subjected to analysis by LCMS, and structures of metabolites were assigned on the basis of their molecular weight and fragmentation pattern.
Compounds were incubated at a concentration of 10 µM with mouse liver microsomes in the presence of an excess of NADPH.
1.1. General Numbering of Metabolites
The metabolites are numbered according to their retention times in the gradient LC-MS analysis in positive […]
ion mode. […] The M number increases […]
consecutively for metabolites with increasing retention time.
To avoid confusion, labelled retention times of a metabolite peak in different injections are the same, which may lead to mismatch between labelled retention time and actual retention time.
General Strategy for Metabolite Identification
The vehicle control and study samples were injected into LC-MS with gradient elution using a Q1 scan method. Searching for potential metabolites was then performed using LightSight software (Applied Biosystems/MDS Sciex) by comparing a total ion current chromatogram of Q1 scan from a study sample with a chromatogram from the corresponding vehicle control sample. The study sample was then injected again to obtain the product ion spectra of potential metabolites using product ion scan methods. The fragmentation patterns of the potential metabolites were then compared to the fragmentation of the parent compound to elucidate the structures of the metabolites.
The assignment of fragments is shown
2.2. Identification of Metabolites in Mouse Liver Microsomal Incubation

[2] = target: T1, GAK (Homo sapiens, UniProt O14976); assay: TR-FRET ligand-binding displacement assay
T1 sequence (O14976 1-1311): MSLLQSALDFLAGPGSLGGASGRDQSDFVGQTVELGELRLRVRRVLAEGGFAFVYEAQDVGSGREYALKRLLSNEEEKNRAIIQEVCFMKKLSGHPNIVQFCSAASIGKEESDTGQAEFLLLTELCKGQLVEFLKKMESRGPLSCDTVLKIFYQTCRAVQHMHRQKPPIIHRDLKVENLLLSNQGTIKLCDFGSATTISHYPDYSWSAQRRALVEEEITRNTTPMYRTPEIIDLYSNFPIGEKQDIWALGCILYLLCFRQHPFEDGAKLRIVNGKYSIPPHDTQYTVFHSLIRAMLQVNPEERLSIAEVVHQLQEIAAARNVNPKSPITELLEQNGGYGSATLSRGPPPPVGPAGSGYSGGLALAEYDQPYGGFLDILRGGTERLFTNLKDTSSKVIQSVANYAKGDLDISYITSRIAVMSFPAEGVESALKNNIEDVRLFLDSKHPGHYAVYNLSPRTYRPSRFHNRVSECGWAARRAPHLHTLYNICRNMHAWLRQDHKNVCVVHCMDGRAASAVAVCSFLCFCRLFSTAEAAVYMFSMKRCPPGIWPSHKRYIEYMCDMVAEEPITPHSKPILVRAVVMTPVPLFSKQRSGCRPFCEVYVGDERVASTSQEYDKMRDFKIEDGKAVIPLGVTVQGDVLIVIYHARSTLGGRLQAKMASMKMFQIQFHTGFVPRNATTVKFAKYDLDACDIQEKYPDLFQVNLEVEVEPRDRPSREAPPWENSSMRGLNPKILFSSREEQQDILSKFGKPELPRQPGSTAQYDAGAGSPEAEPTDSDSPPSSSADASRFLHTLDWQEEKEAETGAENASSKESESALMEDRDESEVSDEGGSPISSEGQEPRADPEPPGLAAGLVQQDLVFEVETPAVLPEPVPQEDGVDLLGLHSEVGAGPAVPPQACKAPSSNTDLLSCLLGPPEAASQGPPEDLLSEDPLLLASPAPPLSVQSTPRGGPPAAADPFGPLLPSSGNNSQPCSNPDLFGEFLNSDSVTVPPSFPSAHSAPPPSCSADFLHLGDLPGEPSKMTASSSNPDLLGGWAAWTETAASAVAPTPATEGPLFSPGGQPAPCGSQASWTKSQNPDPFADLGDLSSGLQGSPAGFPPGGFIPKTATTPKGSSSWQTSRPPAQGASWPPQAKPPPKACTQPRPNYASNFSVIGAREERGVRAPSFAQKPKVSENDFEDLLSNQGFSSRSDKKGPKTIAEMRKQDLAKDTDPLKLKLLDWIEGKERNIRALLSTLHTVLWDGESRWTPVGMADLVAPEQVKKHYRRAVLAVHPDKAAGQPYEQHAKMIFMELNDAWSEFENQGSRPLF

[3] = target: T1, GAK; assay: live cell NanoBRET target engagement assay; format: cell-based; conditions: for IC50: nanoBRET, mean average, n = 2; for IC50 values in cells: live cell NanoBRET assay
[4] = target: AAK1 (Homo sapiens, UniProt Q2M2I8); assay: NAK family TR-FRET binding displacement assay; conditions: NAK family FRET screening
[5] = target: STK16 (Homo sapiens, UniProt O75716); assay: NAK family TR-FRET binding displacement assay
[6] = mouse liver microsome metabolic stability; conditions: for T1/2 Ratio (+) ABT / T1/2 Ratio (−) ABT / T1/2 Ratio / CLint scaled / half-life: mouse liver microsomes; for T1/2 Ratio (+) ABT / T1/2 Ratio (−) ABT: normalized to propranolol; for T1/2 Ratio: normalization with respect to internal control (propranolol); for CLint scaled / half-life: mouse; for half-life / T1/2: mean average, n = 2
Protocol: SGC-GAK-1 (1) was incubated with MLMs in the presence or absence of added NADPH, and the compound was quantified at various time points over an hour.
The metabolic stability of the 4-anilinoquinolines (8–13) were evaluated in MLMs (Table 1). Half-lives for metabolic clearance were normalized to propranolol in each experimental run to control for variations in the MLM preparations.

[7] = Kinetic Solubility; format: physicochemical; conditions: PBS pH7.4 (100 µM)
[8] = target: BMP2K (Homo sapiens, UniProt Q9NSY1); assay: NAK family TR-FRET binding displacement assay
[9] = TR-FRET assay, read-out: Biochemical GAK Ki
[10] = NAK family FRET screening, read-out: Binding displacement assay STK16 Ki
[11] = Clint (mL/min/kg) (+) ABT, (+) ABT
[12] = Clint (mL/min/kg) (−) ABT, (−) ABT
[13] = T1/2 (min), mouse liver microsomes with NADPH
[14] = pH 7.4, aqueous buffer, kinetic from dmso stock, read-out: Kinetic Solubility µM
[15] = pH 7.4, aqueous buffer, kinetic from dmso stock, read-out: Kinetic Solubility µg/mL
[16] = mouse liver microsomes with NADPH
[17] = NAK family FRET screening, read-out: Binding displacement assay BMP2K Ki
[18] = NAK family FRET screening, read-out: Binding displacement assay GAK Ki

Sequence of AAK1 (Q2M2I8 whole entry): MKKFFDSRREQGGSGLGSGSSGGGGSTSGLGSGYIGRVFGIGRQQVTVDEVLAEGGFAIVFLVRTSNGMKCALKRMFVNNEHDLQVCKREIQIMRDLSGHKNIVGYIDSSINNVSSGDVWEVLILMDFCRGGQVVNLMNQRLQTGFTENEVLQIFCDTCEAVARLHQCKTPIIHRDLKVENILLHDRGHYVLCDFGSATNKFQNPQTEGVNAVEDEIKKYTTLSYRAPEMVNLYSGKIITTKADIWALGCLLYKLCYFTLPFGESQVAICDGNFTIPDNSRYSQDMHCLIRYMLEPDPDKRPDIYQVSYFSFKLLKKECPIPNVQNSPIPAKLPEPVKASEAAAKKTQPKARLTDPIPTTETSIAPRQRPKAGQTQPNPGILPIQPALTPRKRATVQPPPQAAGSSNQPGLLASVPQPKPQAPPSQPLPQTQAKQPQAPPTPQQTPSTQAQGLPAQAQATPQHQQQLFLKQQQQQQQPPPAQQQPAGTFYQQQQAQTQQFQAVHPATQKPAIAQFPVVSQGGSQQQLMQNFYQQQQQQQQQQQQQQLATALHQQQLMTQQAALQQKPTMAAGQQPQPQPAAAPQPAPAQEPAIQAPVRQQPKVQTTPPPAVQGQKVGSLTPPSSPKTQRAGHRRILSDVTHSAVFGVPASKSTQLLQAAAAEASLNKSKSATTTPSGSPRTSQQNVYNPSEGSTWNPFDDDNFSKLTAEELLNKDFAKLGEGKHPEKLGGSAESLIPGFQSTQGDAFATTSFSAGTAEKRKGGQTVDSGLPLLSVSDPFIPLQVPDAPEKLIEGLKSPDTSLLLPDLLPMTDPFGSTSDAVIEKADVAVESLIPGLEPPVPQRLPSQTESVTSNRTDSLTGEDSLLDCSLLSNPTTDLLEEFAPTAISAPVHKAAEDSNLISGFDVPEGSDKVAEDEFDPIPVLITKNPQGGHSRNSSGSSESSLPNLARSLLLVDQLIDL
Sequence of BMP2K (Q9NSY1 whole entry): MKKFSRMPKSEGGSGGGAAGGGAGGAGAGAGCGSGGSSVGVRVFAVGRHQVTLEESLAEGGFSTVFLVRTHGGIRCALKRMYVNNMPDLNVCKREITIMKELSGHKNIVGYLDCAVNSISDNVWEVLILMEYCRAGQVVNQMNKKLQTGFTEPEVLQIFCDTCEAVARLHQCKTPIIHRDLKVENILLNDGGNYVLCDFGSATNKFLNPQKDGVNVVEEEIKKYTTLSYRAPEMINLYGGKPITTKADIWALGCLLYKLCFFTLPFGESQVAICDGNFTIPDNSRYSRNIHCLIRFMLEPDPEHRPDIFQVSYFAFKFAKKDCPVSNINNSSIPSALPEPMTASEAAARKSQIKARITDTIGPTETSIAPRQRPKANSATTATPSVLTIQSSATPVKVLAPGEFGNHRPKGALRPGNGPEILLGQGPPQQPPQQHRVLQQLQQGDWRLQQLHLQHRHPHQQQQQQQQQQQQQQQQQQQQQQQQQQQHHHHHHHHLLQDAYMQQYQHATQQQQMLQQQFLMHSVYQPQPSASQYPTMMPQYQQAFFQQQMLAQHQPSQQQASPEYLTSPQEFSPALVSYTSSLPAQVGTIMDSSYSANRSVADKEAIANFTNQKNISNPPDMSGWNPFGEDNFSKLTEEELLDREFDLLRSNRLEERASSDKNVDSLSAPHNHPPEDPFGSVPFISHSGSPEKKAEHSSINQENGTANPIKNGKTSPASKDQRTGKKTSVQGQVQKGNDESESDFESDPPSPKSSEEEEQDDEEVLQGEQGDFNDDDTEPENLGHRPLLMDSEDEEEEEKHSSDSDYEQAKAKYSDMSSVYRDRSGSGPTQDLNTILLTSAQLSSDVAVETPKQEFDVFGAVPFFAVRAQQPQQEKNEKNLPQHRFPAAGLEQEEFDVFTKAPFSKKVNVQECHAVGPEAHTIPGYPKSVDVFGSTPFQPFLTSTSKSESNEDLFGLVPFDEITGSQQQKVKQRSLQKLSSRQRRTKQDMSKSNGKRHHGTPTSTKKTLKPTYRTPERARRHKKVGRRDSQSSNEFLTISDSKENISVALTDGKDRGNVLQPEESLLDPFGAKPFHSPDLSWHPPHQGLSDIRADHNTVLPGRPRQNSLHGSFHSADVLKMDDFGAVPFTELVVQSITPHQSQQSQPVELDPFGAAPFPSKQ
Sequence of STK16 (O75716 whole entry): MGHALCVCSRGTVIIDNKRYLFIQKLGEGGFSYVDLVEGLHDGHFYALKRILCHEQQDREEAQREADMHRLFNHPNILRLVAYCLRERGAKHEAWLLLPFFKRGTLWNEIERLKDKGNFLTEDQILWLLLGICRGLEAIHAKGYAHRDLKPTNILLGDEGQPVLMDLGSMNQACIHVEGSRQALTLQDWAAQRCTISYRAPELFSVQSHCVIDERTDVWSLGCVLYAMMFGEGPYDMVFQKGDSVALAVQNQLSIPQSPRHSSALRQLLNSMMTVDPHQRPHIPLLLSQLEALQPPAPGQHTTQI

Row | Molecule | Ki [2, 9] | IC50 [3] | Ki [4] | Ki [5, 10] | T1/2 Ratio [6] | half-life [6, 13] | solubility kinetic [7, 14] | solubility kinetic [7, 15] | Ki [8] | IC50 values in cells [3] | further results
1 | Brc1ccc2nccc(Nc3cccc4c3OCO4)c2c1 [Compound 9, N-(Benzo[d][1,3]dioxol-4-yl)-6-bromoquinolin-4-amine] | 0.0019 µM | 0.022 µM | > 100 µM | > 100 µM | 1.9 | 8.9 min | 7.3 µM | 2.5 µg/mL | > 100 µM |  | Primary Metabolism Site [1]: Aniline; Primary Metabolite Mass [1]: Parent + O; T1/2 Ratio (+) ABT ([6]; (+) ABT): 0.13; T1/2 Ratio (−) ABT ([6]; (−) ABT): 0.05; CLint scaled [6, 11]: 188 L/h/kg; CLint scaled [6, 12]: 457 L/h/kg; half-life ([6]; T1/2 (min) (+) ABT, (+) ABT): 1.8 min; half-life ([6]; T1/2 (min) (−) ABT, (−) ABT): 0.74 min
2 | Fc1ccc(F)c(Nc2ccnc3ccc(Br)cc23)c1 [Compound 10, 6-Bromo-N-(2,5-difluorophenyl)quinolin-4-amine] | 0.015 µM | 0.87 µM | 3.8 µM | 6.2 µM | 0.17 | 1.7 min | 2.2 µM | 0.7 µg/mL | 9.8 µM |  | Primary Metabolism Site [1]: Aniline; Primary Metabolite Mass [1]: Parent + O
3 | COc1cc(Nc2ccnc3ccc(C(F)(F)F)cc23)cc(OC)c1OC [Compound 13] |  |  | 54 µM | 17 µM |  |  |  |  |  |  | Primary Metabolism Site [1]: Aniline; Primary Metabolite Mass [1]: Parent + O; T1/2 [6, 16]: 6.4 min; Ki [8, 17]: > 100 µM
4 | Fc1ccc2c(c1Nc1ccnc3ccc(Br)cc13)OCO2 [Compound 14, 6-Bromo-N-(5-fluorobenzo[d][1,3]dioxol-4-yl)quinolin-4-amine] | 0.0014 µM | 0.12 µM | 9.7 µM | 20 µM | 0.27 | 1.8 min | 8.8 µM | 3.2 µg/mL | 16 µM |  | T1/2 Ratio (+) ABT ([6]; (+) ABT): 0.18; T1/2 Ratio (−) ABT ([6]; (−) ABT): 0.05; CLint scaled [6, 11]: 137 L/h/kg; CLint scaled [6, 12]: 453 L/h/kg; half-life ([6]; T1/2 (min) (+) ABT, (+) ABT): 2.5 min; half-life ([6]; T1/2 (min) (−) ABT, (−) ABT): 0.74 min
5 | Brc1ccc2nccc(Nc3cccc4cnoc34)c2c1 [Compound 21, N-(6-Bromoquinolin-4-yl)benzo[d]isoxazol-7-amine] | 0.037 µM | 1.4 µM | 4.6 µM | 7.6 µM | 0.64 | 5.2 min | 24.9 µM | 8.5 µg/mL | 12 µM |  | 
6 | Brc1ccc2nccc(Nc3cccc4oncc34)c2c1 [Compound 22, N-(6-Bromoquinolin-4-yl)benzo[d]isoxazol-4-amine] | 0.019 µM | > 5 µM | 4.6 µM |  | 0.17 | 1.4 min | 3.6 µM | 1.2 µg/mL | 15 µM |  | Ki [5]: 15 µM
7 | Brc1ccc2nccc(Nc3cccc4ncoc34)c2c1 [Compound 23, N-(6-Bromoquinolin-4-yl)benzo[d]oxazol-7-amine] |  | 0.34 µM | > 100 µM | > 100 µM | 0.21 | 1.7 min | 25.9 µM | 8.8 µg/mL | > 100 µM | submicromolar | Ki [2, 18]: 0.011 µM
8 | Brc1ccc2nccc(Nc3cccc4ncsc34)c2c1 [Compound 24, N-(6-Bromoquinolin-4-yl)benzo[d]thiazol-7-amine] |  | 0.22 µM | 2.6 µM |  | 0.68 | 5.3 min | 8.6 µM | 3.1 µg/mL | 7.9 µM | submicromolar | Ki [2, 18]: 0.0041 µM; Ki [5]: 7.8 µM
9 | Brc1ccc2nccc(Nc3cccc4scnc34)c2c1 [Compound 25, N-(6-Bromoquinolin-4-yl)benzo[d]thiazol-4-amine] | 0.026 µM | > 5 µM | 1.2 µM | > 100 µM | 0.32 | 2.6 min | 1.1 µM | 0.4 µg/mL | > 100 µM |  | 
10 | Brc1ccc2nccc(Nc3cccc4nsnc34)c2c1 [Compound 29, N-(6-Bromoquinolin-4-yl)benzo[c][1,2,5]thiadiazol-4-amine] | 0.0053 µM | 0.4 µM | 2 µM | 22 µM | 0.20 | 1.6 min | 1.7 µM | 0.6 µg/mL | 4.3 µM | submicromolar | 
11 | Brc1ccc2nccc(Nc3cccc4[nH]ncc34)c2c1 [Compound 32, 6-Bromo-N-(1H-indazol-4-yl)quinolin-4-amine] | 0.014 µM | 0.76 µM | 4.6 µM | 19 µM | 0.32 | 2.5 min | 5.1 µM | 1.7 µg/mL | 7.4 µM | submicromolar | 
12 | Brc1ccc2nccc(Nc3ccc4[nH]ncc4c3)c2c1 [Compound 37, 6-Bromo-N-(1H-indazol-5-yl)quinolin-4-amine] | 0.047 µM | > 5 µM | 0.52 µM | 5.7 µM | 0.92 | 7.5 min | 12.3 µM | 4.2 µg/mL | 0.66 µM |  | 
13 | N-(1H-Indazol-4-yl)-6-(trifluoromethyl)quinolin-4-amine [Compound 33] | 0.72 µM | > 5 µM | 4.6 µM | 11 µM | 0.90 |  |  |  |  |  | T1/2 [6, 16]: 5.9 min; Kinetic Solubility µg/mL [7]: 8.2 µg/mL; solubility kinetic ([7]; read-out: Kinetic Solubility µM): 24.2 µM; Ki [8, 17]: 16 µM
